The IC50 is the concentration that inhibits the measured activity by half. High values mean lower potency, low ones higher potency.

SMILES strings stand for the structures. Some results are limits rather than exact numbers.

Consider 16 molecules from US12173007B2, “Imidazopyridazine IL-17 inhibitor compounds” (Janssen Pharmaceutica NV, priority 2021, dated 2024).

The target of test [1] is IL-17A(FLAG-Tagged): IL-17RA(His-Tagged) binding (Homo sapiens, UniProt Q16552, K93Q). The test can be described thus: IL-17A(FLAG-tagged):IL-17RA(His-tagged) binding disruption Eu-HTRF assay, Protocol 1. Conditions: FLAG-IL-17A 2.5 nM; average if tested more than once. The text has this:
IL-17A(FLAG-Tagged): IL-17RA(His-Tagged) Binding Disruption Eu-HTRF Assay
An antibody directed against the FLAG tag of IL-17A (SEQ ID NO: 1) is labeled with the HTRF donor chromophore (Europium-cryptate). IL-17A is present as a dimer that is “locked into” this quaternary structure due to the formation of loop-spanning […] disulfide bridges. The construct of IL-17RA used in the assay excludes the […] portion of the receptor and is fused to a C-terminal 10×His tag (SEQ ID NO:2). An antibody directed against the His tag of the IL-17RA chimera is labeled with the HTRF acceptor chromophore (“D2”). The fluorescence-resonance energy transfer (FRET) depends on the vicinity of the donor chromophore to the acceptor, and interruption of the binding between the IL-17A and IL-17RA causes the reduction/loss of FRET. Therefore, this assay allows to evaluate the compound effect on the binding IL-17A and IL-17RA by monitoring the fluorescence intensity of donor vs acceptor. The assay was run using either Protocol 1 or Protocol 2 as described below.
Protocol 1. 40 nl of 2-fold serial diluted compound solution for total 22 dilution points is added into each well of a 1536-well, white, low-volume, non-binding plate (Greiner #782904), then 2 μl of FLAG tagged IL-17A at 2×final concentration (2.5 nM) in solution of PBS+0.01% Triton-X100 is added to each well. The assay plate is briefly centrifuged then incubated for 1 h at rt. A mixed solution is prepared containing 2×5 nM 10HIS×IL-17RA, 2×2.5 nM Eu-anti-FLAG (CISBIO), 2×5 nM D2-anti-HIS (CISBIO) in PBS+0.01% Triton-X100+200 mM Potassium Fluoride (Sigma 60238) and 2 μl of mix is added to each well of the assay plate. The plate is briefly centrifuged then incubated for 2 h at rt. The HTRF intensities at the wavelength of donor (620 nm) and acceptor (665 nm) are measured using BMG Pherastar. The ratio between intensities at two wavelengths is calculated and plotted against the compound concentration and the data is fitted to a one-site competition model to yield IC50 of the compound.
Background: Time-resolved FRET reads energy transfer from a long-lived donor to a nearby acceptor.

Test [2] deals with IL-17A-induced G-CSF production in human normal keratinocyte (NHK). The test can be described thus: NHK assay: IL-17A-induced G-CSF production in normal human keratinocytes. Particulars: 24 h, IL-17A 5 ng/mL, G-CSF by HTRF, average if tested more than once. The test is classed as cell-based. The essentials: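 IC50 derives from G-CSF in supernatants, quantified by HTRF from a standard curve, with CellTiter-Glo viability compared to DMSO control. Before a 24 h, 37°C culture of normal human keratinocytes at 3000–4000 cells/well, compound dilutions were preincubated 1 h at rt with human IL-17A (5 ng/mL final), with 0.2% DMSO and 5% FBS.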

UniProt Q16552, sequence (Q16552 with tags, fused parts or gaps K93Q): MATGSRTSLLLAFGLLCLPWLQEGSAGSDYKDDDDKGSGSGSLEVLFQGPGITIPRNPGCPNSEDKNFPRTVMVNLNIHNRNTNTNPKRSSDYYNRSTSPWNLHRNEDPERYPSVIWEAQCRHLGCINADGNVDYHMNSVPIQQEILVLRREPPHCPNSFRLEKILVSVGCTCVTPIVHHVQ

With `CC1CCCN(Cc2cnn3cc([C@@H](NC(=O)c4ccnn4C(C)C)C4CCC(F)(F)CC4)nc3c2)C(=O)N1` (single isomer, unassigned) [Example 94, N—((S)-(4,4-Difluorocyclohexyl)(7-(((R*)-4-methyl-2-oxo-1,3-diazepan-1-yl)methyl)imidazo[1,2-b]pyridazin-2-yl)methyl)-1-isopropyl-1H-pyrazole-5-carboxamide], the IC50 in test [1] was above 100 nM; in test [2] (Homo sapiens, Keratinocyte), above 100 nM.

As to `O=C(N[C@H](c1cn2ncc(CN3CCCNC3=O)cc2n1)C1CCC(F)(F)CC1)c1nonc1C1CC1` [Example 18, (S)-4-Cyclopropyl-N-((4,4-difluorocyclohexyl)(7-((2-oxotetrahydropyrimidin-1(2H)-yl)methyl)imidazo[1,2-b]pyridazin-2-yl)methyl)-1,2,5-oxadiazole-3-carboxamide], the IC50 is above 100 nM in test [1] and above 100 nM in test [2] (Homo sapiens, Keratinocyte).

For the molecule `CC1(F)CNC(=O)N(Cc2cnn3cc([C@@H](NC(=O)c4nonc4C4CC4)C4CCC(F)(F)CC4)nc3c2)C1` (single isomer, unassigned) [Example 2, 4-Cyclopropyl-N—((S)-(4,4-difluorocyclohexyl)(7-(((S*)-5-fluoro-5-methyl-2-oxotetrahydropyrimidin-1(2H)-yl)methyl)imidazo[1,2-b]pyridazin-2-yl)methyl)-1,2,5-oxadiazole-3-carboxamide], the IC50 in test [1] is 50 to 100 nM; in test [2], above 100 nM.

Turning to `CC(C)n1nccc1C(=O)N[C@H](c1cn2ncc(CN3CCCNC3=O)cc2n1)C1CCC(F)(F)CC1` [Example 19, (S)—N-((4,4-Difluorocyclohexyl)(7-((2-oxotetrahydropyrimidin-1(2H)-yl)methyl)imidazo[1,2-b]pyridazin-2-yl)methyl)-1-isopropyl-1H-pyrazole-5-carboxamide], the IC50 was above 100 nM in test [1] and above 100 nM in test [2] (Homo sapiens, Keratinocyte).

`CC1CCCN(Cc2cnn3cc([C@@H](NC(=O)c4nonc4C4CC4)C4CCC(F)(F)CC4)nc3c2)C(=O)N1` (single isomer, unassigned) [Example 96, 4-Cyclopropyl-N—((S)-(4,4-difluorocyclohexyl)(7-(((R*)-4-methyl-2-oxo-1,3-diazepan-1-yl)methyl)imidazo[1,2-b]pyridazin-2-yl)methyl)-1,2,5-oxadiazole-3-carboxamide]: the IC50 was below 50 nM in test [1] and above 100 nM in test [2] (Homo sapiens, Keratinocyte).

Turning to `CC(C)n1nccc1C(=O)N[C@H](c1cn2ncc(CN3CC(C)(C)CNC3=O)cc2n1)C1CCC(F)(F)CC1` [Example 34, (S)—N-((4,4-Difluorocyclohexyl)(7-((5,5-dimethyl-2-oxotetrahydropyrimidin-1(2H)-yl)methyl)imidazo[1,2-b]pyridazin-2-yl)methyl)-1-isopropyl-1H-pyrazole-5-carboxamide], the IC50 in test [1] was above 100 nM; in test [2] (Homo sapiens, Keratinocyte), above 100 nM.

As to `CC1CNC(=O)N(Cc2cnn3cc([C@@H](NC(=O)c4nonc4C4CC4)C4CCC(F)(F)CC4)nc3c2)C1` (single isomer, unassigned) [Example 28, 4-Cyclopropyl-N—((S)-(4,4-difluorocyclohexyl)(7-(((S*)-5-methyl-2-oxotetrahydropyrimidin-1(2H)-yl)methyl)imidazo[1,2-b]pyridazin-2-yl)methyl)-1,2,5-oxadiazole-3-carboxamide], the IC50 is below 50 nM in test [1] and above 100 nM in test [2] (Homo sapiens, Keratinocyte).

Regarding `CC1CCCN(Cc2cnn3cc([C@@H](NC(=O)c4nonc4C4CC4)C4CCC(F)(F)CC4)nc3c2)C(=O)N1` (single isomer, unassigned) [Example 97, 4-Cyclopropyl-N—((S)-(4,4-difluorocyclohexyl)(7-(((S*)-4-methyl-2-oxo-1,3-diazepan-1-yl)methyl)imidazo[1,2-b]pyridazin-2-yl)methyl)-1,2,5-oxadiazole-3-carboxamide], the IC50 in test [1] is 50 to 100 nM; in test [2], above 100 nM.

Turning to `O=C(N[C@H](c1cn2ncc(CN3CC(C(F)(F)F)CNC3=O)cc2n1)C1CCC(F)(F)CC1)c1nonc1C1CC1` (single isomer, unassigned) [Example 5, 4-Cyclopropyl-N—((S)-(4,4-difluorocyclohexyl)(7-(((S*)-2-oxo-5-(trifluoromethyl)tetrahydropyrimidin-1(2H)-yl)methyl)imidazo[1,2-b]pyridazin-2-yl)methyl)-1,2,5-oxadiazole-3-carboxamide], the IC50 in test [1] was below 50 nM; in test [2] it was 50 to 100 nM.

Turning to `COC[C@H](c1cnn2cc([C@@H](NC(=O)c3nonc3C)C3CCC(F)(F)CC3)nc2c1)N1CC(F)(F)CNC1=O` [Example 12, N—((S)-(7-((S)-1-(5,5-Difluoro-2-oxotetrahydropyrimidin-1(2H)-yl)-2-methoxyethyl)imidazo[1,2-b]pyridazin-2-yl)(4,4-difluorocyclohexyl)methyl)-4-methyl-1,2,5-oxadiazole-3-carboxamide], the IC50 in test [1] was below 50 nM; in test [2] (Homo sapiens, Keratinocyte), below 50 nM.

Consider `COCC(c1cnn2cc([C@H](COC(C)(C)C(F)(F)F)NC(=O)c3nonc3C)nc2c1)N1CC(F)(F)CNC1=O` (single isomer, unassigned) [Example 15, N—((R)-1-(7-((S*)-1-(5,5-Difluoro-2-oxotetrahydropyrimidin-1(2H)-yl)-2-methoxyethyl)imidazo[1,2-b]pyridazin-2-yl)-2-((1,1,1-trifluoro-2-methylpropan-2-yl)oxy)ethyl)-4-methyl-1,2,5-oxadiazole-3-carboxamide], for which the IC50 in test [1] is below 50 nM; in test [2] (Homo sapiens, Keratinocyte), below 50 nM.

For the molecule `COC[C@H](c1cnn2cc([C@@H](NC(=O)c3ccnn3C(C)C)C3CCC(F)(F)CC3)nc2c1)N1CC(F)(F)CNC1=O` [Example 14, N—((S)-(7-((S)-1-(5,5-Difluoro-2-oxotetrahydropyrimidin-1(2H)-yl)-2-methoxyethyl)imidazo[1,2-b]pyridazin-2-yl)(4,4-difluorocyclohexyl)methyl)-1-isopropyl-1H-pyrazole-5-carboxamide], the IC50 was 50 to 100 nM in test [1] and below 50 nM in test [2] (Homo sapiens, Keratinocyte).

On to `CC1(F)CNC(=O)N(Cc2cnn3cc([C@@H](NC(=O)c4nonc4C4CC4)C4CCC(F)(F)CC4)nc3c2)C1` (single isomer, unassigned) [Example 1, 4-Cyclopropyl-N—((S)-(4,4-difluorocyclohexyl)(7-(((R*)-5-fluoro-5-methyl-2-oxotetrahydropyrimidin-1(2H)-yl)methyl)imidazo[1,2-b]pyridazin-2-yl)methyl)-1,2,5-oxadiazole-3-carboxamide], for which the IC50 in test [1] was below 50 nM; in test [2] (Homo sapiens, Keratinocyte) it was above 100 nM.

On to `Cc1nonc1C(=O)N[C@H](c1cn2ncc([C@@H](C3CC3)N3CC(F)(F)CNC3=O)cc2n1)C1CCC(F)(F)CC1` [Example 8, N—((S)-(7-((R)-Cyclopropyl(5,5-difluoro-2-oxotetrahydropyrimidin-1(2H)-yl)methyl)imidazo[1,2-b]pyridazin-2-yl)(4,4-difluorocyclohexyl)methyl)-4-methyl-1,2,5-oxadiazole-3-carboxamide], for which the concentration for half-maximal inhibition (IC50) in test [1] is below 50 nM; in test [2] (Homo sapiens, Keratinocyte) it was 50 to 100 nM.

For the molecule `CC1CNC(=O)N(Cc2cnn3cc([C@@H](NC(=O)c4nonc4C4CC4)C4CCC(F)(F)CC4)nc3c2)C1` (single isomer, unassigned) [Example 29, 4-Cyclopropyl-N—((S)-(4,4-difluorocyclohexyl)(7-(((R*)-5-methyl-2-oxotetrahydropyrimidin-1(2H)-yl)methyl)imidazo[1,2-b]pyridazin-2-yl)methyl)-1,2,5-oxadiazole-3-carboxamide], the IC50 in test [1] and in test [2] was above 100 nM throughout.

Consider `O=C(N[C@H](c1cn2ncc(CN3CC(F)(F)CNC3=O)cc2n1)C1CCC(F)(F)CC1)c1conc1COC(F)F` [Example 22, (S)—N-((7-((5,5-Difluoro-2-oxotetrahydropyrimidin-1(2H)-yl)methyl)imidazo[1,2-b]pyridazin-2-yl)(4,4-difluorocyclohexyl)methyl)-3-((difluoromethoxy)methyl)isoxazole-4-carboxamide], for which the IC50 lay within 50 to 100 nM in test [1] and 50 to 100 nM in test [2] (Homo sapiens, Keratinocyte).
